Assay results taken from patent US20060008864A1, “Methods to measure compound specificity” (priority 2004, published 2006).
Counter-ions that a name gives are not always drawn. Like-named read-outs stand apart in the source and are kept apart here.

How the values were obtained:
[1] = tested on: HeLa CCT (cancer cell tubulin); assay: Fluorescence (DAPI) tubulin polymerization microassay, HeLa cancer cell tubulin; format: biochemical; details: for Tubulin Ligand Index (TLI) ratio, HeLa: BBT EC50 divided by HeLa CCT EC50; for EC50: 2 mg/ml tubulin, enhancer format without glycerol, 50% of 20% glycerol control Vmax, read-out: EC50 using HeLa CCT
Text: (§1) A plot of log10 of concentration (X-axis) and Percent Vmax (control) (Y-axis) is made for each compound.

[2] = tested on: MCF-7 CCT (cancer cell tubulin); assay: Fluorescence (DAPI) tubulin polymerization microassay, MCF-7 cancer cell tubulin; details: BBT EC50 divided by MCF-7 CCT EC50
Method: Compounds were assayed in the standard glycerol containing (vinblastine and colchicine) or no glycerol containing (paclitaxel) formats. […] Twenty four micrograms of CCT in G-PEM with 10 uM DAPI plus glycerol (colchicine and vinblastine) or minus glycerol (paclitaxel) at 4° C. was pipetted into wells of the 384-well plate which contained 1.3 ul of 10× strength compound concentration and incubated at 37° C. Tubulin polymerization was detected by measuring the fluorescence of the solution (Ex 360 nm, Em 405 nm) over time. Each set of data, A through I, represents six duplicate polymerization assays from one experiment, the duplicates contain either a 20% glycerol control or one of five compound concentrations (0.1, 0.3, 1.0, 3.0 or 10 uM). Paclitaxel experiments were repeated n=3 for neuronal, n=5 for HeLa and n=2 for MCF-7. Vinblastine experiments were repeated n=2 for neuronal, n=5 for HeLa and n=2 for MCF-7. Colchicine experiments were repeated n=2 for neuronal, HeLa and MCF-7. […]
Using the conditions described in FIG. 9, we measured eleven taxol analogs against BBT and MCF-7 CCT. TLI's were calculated by the method described in FIG. 11. […]
A fluorescent plate reader is tuned to 360 nm excitation wavelength and 405 to 475 nm emission wavelength, a 384 well plate was placed into the machine and it was pre-warmed to 37° C.

[3] = target: Bovine brain tubulin (mainly isotypes βII and βIII); details: cited from earlier work
[4] = tested on: Bovine brain tubulin (BBT, neuronal tubulin); assay: Fluorescence (DAPI) tubulin polymerization microassay, bovine brain tubulin; format: biochemical; details: 2 mg/ml tubulin, enhancer format without glycerol; 50% of 20% glycerol control Vmax; read-out: EC50 using neuronal tubulin
Text: as §1

[5] = tested on: HeLa CCT (cancer cell tubulin); details: BBT IC50 divided by HeLa CCT IC50; IC50 estimated from 50% intercept of dose response curve; cited from earlier work

EC50 [4] [nM] | EC50 [1] [nM] | Compound | Tubulin Ligand Index (TLI) ratio, HeLa [1] | Tubulin Ligand Index (TLI), BBT vs HeLa CCT, measured by Zentaris GmbH [5] | also measured
– | – | CC(=O)O[C@@]12CO[C@@H]1C[C@H](O)[C@@]1(C)C(=O)[C@H](O)C3=C(C)[C@@H](O)C[C@@](O)([C@@H](OC(=O)c4ccccc4)[C@H]21)C3(C)C [10-Deacetyl-baccatin-III] | < 0.01 | – | Tubulin Ligand Index (TLI) ratio, MCF-7 [2]: 0.28
– | – | N=C(N)c1ccc(-c2cc3ccc(C(=N)N)cc3[nH]2)cc1 [DAPI, 4′, 6-diamidino-2-phenylindole-HCl] | – | – | Kd ([3]; bovine brain tubulin in the monomer form, read-out: Kd (affinity constant) for DAPI, monomer form): 43000 nM; Kd ([3]; bovine brain tubulin in the polymer form, read-out: Kd (affinity constant) for DAPI, polymer form): 6000 nM
140 | 150 | CC(=O)O[C@@]12CO[C@@H]1C[C@H](O)[C@@]1(C)C(=O)[C@H](O)C3=C(C)[C@@H](OC(=O)[C@H](O)[C@@H](NC(=O)OC(C)(C)C)c4ccccc4)C[C@@](O)([C@@H](OC(=O)c4ccccc4)[C@H]21)C3(C)C [docetaxel] | 0.93 | – | –
150 | 790 | CC(=O)O[C@H]1C(=O)[C@@]2(C)[C@H]([C@H](OC(=O)c3ccccc3)[C@]3(O)C[C@H](OC(=O)[C@H](O)[C@@H](NC(=O)c4ccccc4)c4ccccc4)C(C)=C1C3(C)C)[C@]1(OC(C)=O)CO[C@@H]1C[C@@H]2O [paclitaxel] | – | – | –
– | – | CC[C@]1(O)C[C@@H]2CN(CCc3c([nH]c4ccccc34)[C@@](C(=O)OC)(c3cc4c(cc3OC)N(C)[C@H]3[C@@](O)(C(=O)OC)[C@H](OC(C)=O)[C@]5(CC)C=CCN6CC[C@]43[C@@H]65)C2)C1 [vinblastine] | – | 1.0 | –
– | – | Disorazol E1 | – | 2.0 | –
